Test results from patent US7128912B2, “Fibronectin binding protein compositions and methods of use” (The Texas A&M University System, priority 1997, dated 2006).

B1: modified rFnBD-D: rFnBD-D chemically modified with EDC (protein)
chain: GQNSGNQSFEEDTEEDKPKYEQGGNIVDIDFDSVPQIHGQNKGNQSFEEDTEKDKPKYEHGGNIIDIDFDSVPHIHGFNKHTEIIEEDTNKDKPSYQFGGHNSVDFEEDTLPKVSGQNEGQQTIEEDTTPPIVP
modifications: left off: small tags and cut ends
notes: rFnBD-D chemically modified with EDC
B2: native rFnBD-D: recombinant version of the S. aureus Fn-binding MSCRAMM repeat domain (protein)
chain: B1 chain
modifications: left off: small tags and cut ends

System: S. aureus
Experiment: Inhibition of Fn binding to S. aureus (rFnBD-D, EDC-modified rFnBD-D, immune IgG)
Type: cell-based, Staphylococcus aureus
Settings: not given
Source text: Based on this observation, the inventors hypothesized that only Fn-binding MSCRAMMs that lack binding activity should lead to blocking antibodies. A recombinant version of the Fn-binding MSCRAMM rFnBD-D was chemically modified with EDC as previously described (McGavin et al., 1991) and tested for its ability to inhibit Fn binding to S. aureus. […] The chemically modified rFnBD-D was then used to immunize rabbits. […] With efficiencies of approximately 98%, chemical modification had the advantage of providing a quick and efficient method for probing entire classes of amino acids. However, an inherent disadvantage in this global approach is that the contribution to binding of individual amino acids was not detected.

For B1, which “inhibition of Fn binding to S. aureus” value is on record?
Its value is “no inhibitory activity”.

Which “inhibition of Fn binding to S. aureus” value does the source give for B2 here?
The value was “inhibited Fn binding to S. aureus in a dose-dependent manner”.

System: S. aureus strain Cowan binding to immobilized fibronectin
Experiment: Inhibition of biotinylated S. aureus binding to immobilized fibronectin by synthetic peptides (ELISA)
Type: cell-based, Staphylococcus aureus
Settings: 250 μg peptide (FIG. 3B)
Protocol: FIG. 2A, FIG. 2B and FIG. 2C. Inhibition of S. aureus binding to immobilized fibronectin by wild-type and mutant D3 peptides 1 through 21 (Table 3). NP indicates the amount of adherent bacteria in the absence of inhibitor. FIG. 2A. Peptides tested at 5 μg/well. FIG. 2B. Peptides tested at 50 μg/well. FIG. 2C. Peptides tested at 250 μg/well.
FIG. 3A and FIG. 3B. FIG. 3A. Inhibition of S. aureus binding to immobilized fibronectin by wild-type peptides D1 and D2 and mutant derivatives. NP indicates the amount of adherent bacteria in the absence of inhibitor. All peptides were tested at 10 μg/well. FIG. 3B. Inhibition of S. aureus binding to immobilized fibronectin by wild-type peptides D1. D2 and DU and mutant derivatives. NP indicates the amount of adherent bacteria in the absence of inhibitor. All peptides were tested at 250 μg/well.
S. aureus strain Cowan was cultured under constant rotation for 15 h at 37° C. in brain heart infusion (BHI; Difco) broth. Bacteria were harvested by centrifugation, resuspended in a bicarbonate buffer (50 mM NaHCO3, pH 8.5) to a final density of 10^10 cells/ml determined by comparing the absorbance at 600 nm of the sample with a previously prepared standard curve relating A600 to cells counted in a Petroff Hausser chamber. Bacterial cells were labeled with biotin by the addition of 100 μl of 1% NHS-biotin/ml of bacterial suspension (Pierce, Rockford, Ill.) in N,N-dimethylformamide. The staphylococcal cells were incubated with the NHS-biotin for 2 h at room temperature with constant rotation. The biotinylation reaction was stopped by removing the supernatant after centrifugation of the bacterial cells. The bacteria were then washed three times in PBS to remove unincorporated biotin. The bacterial cell suspensions were then adjusted to 1×10^10 cells/ml and the cells were stored at 4° C. in PBS, pH 7.4. To prevent unbiotinylated bacteria from growing and to reduce background, sodium azide and 0.1% BSA were added.
A series of peptides, based on the D3 repeat of S. aureus FnBPA, were synthesized to contain a proline residue at each position throughout the entire sequence (i.e., proline scan; Table 3). The mutated peptides were initially tested for their ability to inhibit biotinylated S. aureus binding to immobilized fibronectin. Wells on a 96-well Immulon II plate were coated with […] of a 30 μg/ml solution of purified Fn, either for 2 hr at room temperature or overnight at 4° C. Wells were washed three times with 1× phosphate buffered saline (PBS)-0.05% Tween-80 and blocked for 1 hr with PBS containing 0.01% Tween-80 and 1% BSA. After 1 hr, wells were washed again with PBS containing 0.05% Tween-80. Synthetic peptides were diluted to 5 mg/ml concentration in 1×PBS and tested at a concentration of 5 (FIG. 2A), 50 (FIG. 2B), or 250 μg/well (FIG. 2C). A volume of […] of the synthetic peptide was added to each well, after 15–25 min, followed by […] of biotinylated S. aureus cells. The plates were incubated for one hour at room temperature with slight agitation on a shaker. After 1 hr the wells were washed with PBS-0.05% Tween-80 and then incubated 30 min in 1:5000 dilution of secondary antibody streptavidin alkaline phosphatase. After 30 min, wells were washed again and developed with diethanolamine containing p-nitrophenyl phosphate (PNPP; 1 mg/ml) for 30 min at room temperature. The reaction was monitored at 405 nm.

Which “inhibitory activity compared to the wild type peptides” value does the source give for “QNKGNQSFEEDTEKDKPKYEHPGNIIDIDFDSVPHIHG [D2–22P]” here?
Its value is “virtually no inhibitory activity”.

Which “inhibitory activity compared to the wild type peptides” value does the source give for “ADVVEYEEDTNPPGGQVTTESNLVEFDEEST [DU-13P]” here?
The value was “virtually no inhibitory activity”.

With “ADVVEYEEDTNPGPGQVTTESNLVEFDEEST [DU-14P]” as the molecule, how does the “inhibitory activity compared to the wild type peptides” value read?
The value was “inhibitory activity was detected”.

For “QNSGNQSFEEDTEEDKPKYEQPGNIVDIDFDSVPQIHG [D1–22P]”, which “inhibitory activity compared to the wild type peptides” value is on record?
The value was “inhibitory activity was detected”.

Same assay, conditions: FIG. 2C, peptides at 250 μg/well; proline scan of D3

For KPSYQFGGHNSVDFEEDTLPP [compound 21], which “ability of mutant D3 peptides to inhibit S. aureus binding to Fn” value (“ability … to inhibit S. aureus binding to Fn” below) is on record?
The value was “enhanced S. aureus Fn binding ability”.

Which “ability … to inhibit S. aureus binding to Fn” value does the source give for KPSYQFGGHNSVDFEEPTLPK [compound 17] here?
Its value is “enhanced S. aureus Fn binding ability”.

Which “ability … to inhibit S. aureus binding to Fn” value does the source give for KPSYQFGGHNSVDFEEDPLPK [compound 18] here?
The value was “enhanced S. aureus Fn binding ability”.

For KPSYQFGGHNSVDFEEDTPPK [compound 19], which “ability … to inhibit S. aureus binding to Fn” value is on record?
Its value is “enhanced S. aureus Fn binding ability”.

With KPSYQFGGHNPVDFEEDTLPK [compound 11] as the molecule, how does the “ability … to inhibit S. aureus binding to Fn” value read?
Its value is “inhibitory activity of peptides increased”.

With KPSYQFPGHNSVDFEEDTLPK [compound 7] as the molecule, how does the “ability … to inhibit S. aureus binding to Fn” value read?
The value was “decreased ability to inhibit S. aureus binding to Fn”.

Which “ability … to inhibit S. aureus binding to Fn” value does the source give for PPSYQFGGHNSVDFEEDTLPK [compound 1] here?
Its value is “inhibitory activity of peptides increased”.

Which “ability … to inhibit S. aureus binding to Fn” value does the source give for KPSYQFGPHNSVDFEEDTLPK [compound 8] here?
The value was “inhibitory activity of peptides increased”.

Which “ability … to inhibit S. aureus binding to Fn” value does the source give for KPPYQFGGHNSVDFEEDTLPK [compound 3] here?
The value was “inhibitory activity of peptides increased”.

With KPSYQFGGHNSVDFEPDTLPK [compound 16] as the molecule, how does the “ability … to inhibit S. aureus binding to Fn” value read?
The value was “enhanced S. aureus Fn binding ability”.

With KPSPQFGGHNSVDFEEDTLPK [compound 4] as the molecule, how does the “ability … to inhibit S. aureus binding to Fn” value read?
Its value is “decreased ability to inhibit S. aureus binding to Fn”.

For KASYQFGGHNSVDFEEDTLPK [compound 2], which “ability … to inhibit S. aureus binding to Fn” value is on record?
The value was “inhibitory activity of peptides increased”.

Same assay, conditions: low concentration, 10 μg peptide (FIG. 3A)

For “QNKGNQSFEEDTEKDKPKYEHPGNIIDIDFDSVPHIHG [D2–22P]”, which “inhibitory activity compared with control samples (no peptide)” value is on record?
The value was “no inhibitory activity”.

For “QNSGNQSFEEDTEEDKPKYEQPGNIVDIDFDSVPQIHG [D1–22P]”, which “inhibitory activity compared with control samples (no peptide)” value is on record?
The value was “no inhibitory activity”.

System: S. aureus
Experiment: not given
Settings: McGavin et al., 1991; cited from earlier work

Which “inhibition of binding of Fn to S. aureus / Fn-binding function” value does the source give for QFGGHNSVDFEEDT [D320-33] here?
The value was “could not inhibit binding of Fn to S. aureus”.
